Laboratory results from ChEMBL document CHEMBL1129792, “Synthesis and structure-activity relationships of 1,2,3,4-tetrahydroquinoline-2,3,4-trione 3-oximes: novel and highly potent antagonists for NMDA receptor glycine site” (J Med Chem, 1996).

How the values were obtained:
[1] = target: Glutamate receptor ionotropic, NMDA 1 (Rattus norvegicus, UniProt P35439); experiment: Inhibition of [3H]- DCKA binding to NMDA receptor of rat brain membranes; type: cell membranes, Membrane
[2] = target: Glutamate receptor ionotropic, AMPA (Rattus norvegicus) (UniProt P19491+P19492+P19493+P19490); experiment: Inhibition of Ionotropic glutamate receptor AMPA in xenopus oocytes expressing the rat cerebral cortex poly(A+) RNA; type: cell-based; details: Oocyte
[3] = Functional antagonism of NR1a/2C N-methyl-D-aspartate glutamate receptor of rat membrane expressed in Xenopus oocytes; details: Oocyte
[4] = Steady state Selectivity index for inhibition at NMDA receptor glycine site was estimated by dividing Kb (AMPA) by Kb (NMDA)

O=Nc1c(O)nc2cccc(Cl)c2c1O
IC50 [1]: 4400 nM

O=Nc1c(O)c2cc(Cl)ccc2[nH]c1=O
IC50 [1]: 3400 nM

O=Nc1c(O)nc2cc(Cl)c(Cl)c(Cl)c2c1O
Kb [2]: 180 nM
IC50 [1]: 7 nM
Kb [3]: 22 nM

O=Nc1c(O)nc2cc(Cl)ccc2c1O
Kb [2]: 740 nM
IC50 [1]: 53 nM
Selectivity [4]: 8.6
Kb [3]: 86 nM

Oc1nc2ccc(Cl)cc2nc1O
IC50 [1]: 1800 nM
Kb [3]: 2600 nM

O=Nc1c(O)nc2c(Cl)cccc2c1O
IC50 [1]: > 100000 nM

Oc1nc2cc(Cl)cc(Cl)c2nc1O
IC50 [1]: 280 nM
Kb [3]: 730 nM

O=Nc1c(O)c2cc(F)c(Cl)c(F)c2[nH]c1=O
IC50 [1]: 910 nM

Cc1cc(C)c2c(O)c(N=O)c(=O)[nH]c2c1
IC50 [1]: 37 nM

O=Nc1c(O)c2c(F)c(F)c(F)c(F)c2[nH]c1=O
IC50 [1]: 3300 nM

Cc1cc(C)c2c(O)c(N=O)c(O)nc2c1
Kb [2]: 2600 nM
Selectivity [4]: 15
Kb [3]: 170 nM

Cc1cc(C)c2nc(O)c(O)nc2c1
IC50 [1]: 2100 nM

O=Nc1c(O)nc2cc(Cl)c(Cl)cc2c1O
Kb [2]: 410 nM
IC50 [1]: 12 nM
Selectivity [4]: 17
Kb [3]: 24 nM

O=Nc1c(O)nc2ccc(Cl)c(Cl)c2c1O
IC50 [1]: 170 nM

Oc1nc2ccccc2nc1O
IC50 [1]: 9800 nM

O=Nc1c(O)nc2ccccc2c1O
IC50 [1]: 1400 nM

Oc1nc2cc(Cl)c(Cl)cc2nc1O [2,3-DIHYDROXY-6,7-DICHLOROQUINOXALINE]
IC50 [1]: 130 nM
Kb [3]: 380 nM

O=Nc1c(O)c2c(Cl)cc(Cl)cc2[nH]c1=O
IC50 [1]: 33 nM

O=Nc1c(O)nc2cc(Cl)cc(Cl)c2c1O
Kb [2]: 600 nM
Selectivity [4]: 13
Kb [3]: 47 nM

O=c1[nH]c2c(F)c(F)c(F)c(F)c2[nH]c1=O
IC50 [1]: 730 nM

Oc1nc2cc(F)c(Cl)c(F)c2nc1O
IC50 [1]: 630 nM

Oc1nc2cc(Cl)c(Cl)c(Cl)c2nc1O
IC50 [1]: 30 nM
Kb [3]: 82 nM
